Measured values: PMC9133112, “The structural basis of Cdc7-Dbf4 kinase dependent targeting and phosphorylation of the MCM2-7 double hexamer” (Nature Communications, 2022)

target: T1, DDK (Dbf4-dependent Cdc7 kinase, Cdc7-Dbf4) (Saccharomyces cerevisiae, UniProt P06243); assay: inhibition of MCM2-7 phosphorylation by DDK (gel); assay type: biochemical; details: substrate MCM2-7
T1 construct: full-length Cdc7-Dbf4, expressed in budding yeast, MBP tag cleaved with PreScission, lambda phosphatase treated; with DDK kinase regulatory subunit DBF4
T1 sequence (P06243 whole entry): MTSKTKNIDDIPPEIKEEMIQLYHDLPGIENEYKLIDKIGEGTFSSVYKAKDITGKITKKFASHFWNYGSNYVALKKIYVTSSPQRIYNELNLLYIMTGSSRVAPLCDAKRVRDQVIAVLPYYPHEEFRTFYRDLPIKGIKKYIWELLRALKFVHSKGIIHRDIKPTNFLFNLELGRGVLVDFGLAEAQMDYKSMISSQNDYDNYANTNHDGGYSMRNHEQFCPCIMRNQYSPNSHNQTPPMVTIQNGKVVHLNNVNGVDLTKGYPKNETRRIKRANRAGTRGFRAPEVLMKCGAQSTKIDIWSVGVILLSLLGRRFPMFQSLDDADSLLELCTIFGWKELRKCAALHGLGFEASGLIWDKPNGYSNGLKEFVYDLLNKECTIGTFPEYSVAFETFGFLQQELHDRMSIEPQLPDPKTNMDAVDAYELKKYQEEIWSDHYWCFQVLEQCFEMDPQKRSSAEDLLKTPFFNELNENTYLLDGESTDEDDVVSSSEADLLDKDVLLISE
T1 sequence (P32325 whole entry partner): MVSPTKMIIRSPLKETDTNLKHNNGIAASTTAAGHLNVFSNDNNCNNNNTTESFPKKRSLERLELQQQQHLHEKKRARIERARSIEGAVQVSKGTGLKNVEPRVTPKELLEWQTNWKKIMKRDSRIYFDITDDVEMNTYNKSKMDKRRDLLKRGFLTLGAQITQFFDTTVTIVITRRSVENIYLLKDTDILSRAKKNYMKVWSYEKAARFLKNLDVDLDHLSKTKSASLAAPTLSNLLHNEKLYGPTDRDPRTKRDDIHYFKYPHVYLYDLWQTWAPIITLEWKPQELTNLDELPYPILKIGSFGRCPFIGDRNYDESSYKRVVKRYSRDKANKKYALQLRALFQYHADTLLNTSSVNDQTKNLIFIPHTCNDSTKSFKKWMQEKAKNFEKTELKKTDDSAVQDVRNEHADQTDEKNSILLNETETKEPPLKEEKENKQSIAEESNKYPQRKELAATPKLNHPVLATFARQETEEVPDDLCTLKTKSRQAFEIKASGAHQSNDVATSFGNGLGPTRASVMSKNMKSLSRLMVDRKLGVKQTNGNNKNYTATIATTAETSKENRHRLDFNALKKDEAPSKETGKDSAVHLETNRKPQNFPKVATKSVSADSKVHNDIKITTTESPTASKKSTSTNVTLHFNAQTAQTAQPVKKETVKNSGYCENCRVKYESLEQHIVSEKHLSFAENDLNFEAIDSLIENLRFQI

SMILES | inhibition
O=C1NCCc2[nH]c(-c3ccncc3)cc21 [PHA767491] | DDK phosphorylation of MCM2-7 is inhibited by the human Cdc7 inhibitors: XL413, PHA767491 and TAK931
Cc1[nH]ncc1-c1cc2nc([C@@H]3CC4CCN3CC4)[nH]c(=O)c2s1 [TAK931] | DDK phosphorylation of MCM2-7 is inhibited by the human Cdc7 inhibitors: XL413, PHA767491 and TAK931
O=c1[nH]c([C@@H]2CCCN2)nc2c1oc1ccc(Cl)cc12 [XL413] | DDK phosphorylation of MCM2-7 is inhibited by the human Cdc7 inhibitors: XL413, PHA767491 and TAK931
